These are literature values, as cited in US20070117764A1, “Compositions comprising macrolide t-cell immunomodulators or immunosuppressants in combination with antibacterials” (priority 2003, published 2007).

The test system of this data set is allogeneic kidney transplantation. To be noted: rat, oral administration, suppression of systemic immune response.

`C=CC[C@@H]1/C=C(\C)C[C@H](C)C[C@H](OC)[C@H]2O[C@@](O)(C(=O)C(=O)N3CCCC[C@H]3C(=O)O[C@H](/C(C)=C/[C@@H]3CC[C@@H](O)[C@H](OC)C3)[C@H](C)[C@@H](O)CC1=O)[C@H](C)C[C@@H]2OC` [tacrolimus]: the “minimum effective dose (MED)” value is recorded as 14 mg/kg.
